In US12371436B2, “Substituted benzodiazoliums as ENaC inhibitors” (ENTERPRISE THERAPEUTICS LIMITED, priority 2016, dated 2025) one finds IC50 data, which are given here for 13 compounds.

Broadly, the IC50 is the concentration that inhibits the measured activity by half.

Molecules are shown by their SMILES. Where a name gives a salt, the structure may show the parent alone.

In the assay the target is T1, ENaC (Homo sapiens, UniProt P37088+P51168+P51170).
T1 construct: host or cells: primary human bronchial epithelial cells (HBECs) differentiated at air-liquid interface
T1 sequence (P37088 1-669): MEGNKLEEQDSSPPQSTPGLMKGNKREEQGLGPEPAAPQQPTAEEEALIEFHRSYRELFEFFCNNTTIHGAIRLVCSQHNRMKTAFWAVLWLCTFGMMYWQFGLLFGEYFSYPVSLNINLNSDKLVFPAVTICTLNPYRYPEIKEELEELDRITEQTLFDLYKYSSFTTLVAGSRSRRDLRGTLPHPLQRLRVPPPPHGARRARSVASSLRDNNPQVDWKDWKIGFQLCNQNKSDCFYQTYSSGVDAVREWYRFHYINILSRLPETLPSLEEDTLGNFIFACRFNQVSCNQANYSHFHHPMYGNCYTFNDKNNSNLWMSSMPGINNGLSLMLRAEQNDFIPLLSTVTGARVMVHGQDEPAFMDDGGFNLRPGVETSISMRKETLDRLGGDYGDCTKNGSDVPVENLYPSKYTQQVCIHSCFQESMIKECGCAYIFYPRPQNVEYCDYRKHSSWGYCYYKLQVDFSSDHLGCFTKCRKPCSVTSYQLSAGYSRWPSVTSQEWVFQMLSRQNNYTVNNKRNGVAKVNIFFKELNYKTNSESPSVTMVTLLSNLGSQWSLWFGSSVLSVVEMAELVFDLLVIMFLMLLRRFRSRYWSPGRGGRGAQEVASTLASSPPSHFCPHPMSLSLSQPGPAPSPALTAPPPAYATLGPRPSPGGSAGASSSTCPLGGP
T1 sequence (P51168 1-640): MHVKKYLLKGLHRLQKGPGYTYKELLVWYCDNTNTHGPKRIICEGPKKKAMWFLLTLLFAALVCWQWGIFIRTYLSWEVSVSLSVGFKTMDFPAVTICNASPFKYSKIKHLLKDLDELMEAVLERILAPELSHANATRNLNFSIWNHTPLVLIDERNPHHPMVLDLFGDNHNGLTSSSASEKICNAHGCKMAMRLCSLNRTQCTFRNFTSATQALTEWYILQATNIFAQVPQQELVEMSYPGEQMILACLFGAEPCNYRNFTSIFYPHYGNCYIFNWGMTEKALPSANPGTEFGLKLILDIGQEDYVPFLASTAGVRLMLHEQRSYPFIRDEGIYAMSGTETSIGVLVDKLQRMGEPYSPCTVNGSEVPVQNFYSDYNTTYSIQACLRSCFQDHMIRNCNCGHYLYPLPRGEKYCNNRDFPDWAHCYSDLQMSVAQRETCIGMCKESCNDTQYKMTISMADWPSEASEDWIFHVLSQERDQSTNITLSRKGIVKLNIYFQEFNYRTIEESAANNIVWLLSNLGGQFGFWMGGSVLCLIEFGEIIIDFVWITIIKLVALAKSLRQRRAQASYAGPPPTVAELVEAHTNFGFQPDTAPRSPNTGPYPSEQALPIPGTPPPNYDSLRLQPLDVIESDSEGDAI
T1 sequence (P51170 1-649): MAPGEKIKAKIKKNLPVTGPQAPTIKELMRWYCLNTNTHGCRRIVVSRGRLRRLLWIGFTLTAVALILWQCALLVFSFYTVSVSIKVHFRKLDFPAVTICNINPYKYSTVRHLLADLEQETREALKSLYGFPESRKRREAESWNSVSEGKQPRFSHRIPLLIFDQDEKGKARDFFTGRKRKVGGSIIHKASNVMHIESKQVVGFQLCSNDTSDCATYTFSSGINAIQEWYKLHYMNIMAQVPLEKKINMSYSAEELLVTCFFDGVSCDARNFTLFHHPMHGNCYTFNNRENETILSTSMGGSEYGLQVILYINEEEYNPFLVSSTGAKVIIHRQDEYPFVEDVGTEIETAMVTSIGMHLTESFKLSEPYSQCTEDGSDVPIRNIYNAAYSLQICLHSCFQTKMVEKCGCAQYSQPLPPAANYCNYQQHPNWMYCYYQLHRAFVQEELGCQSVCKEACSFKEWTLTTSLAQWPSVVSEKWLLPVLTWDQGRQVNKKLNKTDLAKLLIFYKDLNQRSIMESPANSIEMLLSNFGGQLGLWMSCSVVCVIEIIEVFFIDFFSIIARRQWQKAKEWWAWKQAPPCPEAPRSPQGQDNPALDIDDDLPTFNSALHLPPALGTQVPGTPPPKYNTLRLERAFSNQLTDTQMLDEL
The assay is described as follows: Short circuit current assay to determine ENaC blocker potency in human bronchial epithelial cells. The following applies: 50% inhibition of total amiloride-sensitive ISC, apical addition, read-out: Averages.ENaC IC50 (nM) Avg. The format is cell-based. Here is the method: Example 68—Short circuit current assay to determine ENaC blocker potency in human bronchial epithelial cells
Human bronchial epithelial cells (HBECs) (Lonza, UK) were cultured using a modification of the method described by Coote et al, (2008). Cells were seeded into plastic T-75 flasks and grown in Bronchial Epithelial Cell Growth Medium (BEGM) (Lonza, UK) supplemented with bovine pituitary extract (52 ng/mL), hydrocortisone (0.5 μg/mL), human recombinant Epidermal Growth Factor (0.5 ng/mL), epinephrine (0.5 ng/mL), transferrin (10 ng/mL), insulin (5 ng/mL), retinoic acid (0.1 ng/mL), triiodothyronine (6.5 ng/mL), gentamycin (50 μg/mL) and amphotericin-B (50 ng/mL). Medium was changed every 48 hours until cells were 90% confluent. Cells were then passaged and seeded (8.25×10^5 cells/insert) onto polycarbonate Snapwell™ inserts (Costar, UK) in differentiation media containing 50% DMEM in BGEM with the same supplements as above but without triiodothyronine and a final retinoic acid concentration of 50 nM (all-trans retinoic acid; Sigma-Aldrich, UK). Cells were maintained submerged for the first 7 days in culture after which time they were exposed to an apical air interface for the remainder of the culture period. From the first day of establishment of an ALI, HBEC were fed with a DMEM:HAMS F-12 (1:1) media containing 2% Ultroser G (Pall BioSepra, France) with gentamycin (50 μg/mL) and amphotericin B (50 ng/mL). Cells were used for short-circuit current assay between days 14-21 after the establishment of the ALI. At all stages of culture, cells were maintained at 37° C. in 5% CO2 in an air incubator.
Short-Circuit Current (ISC) Measurements
Snapwell inserts were mounted in Costar Vertical Diffusion Chambers (Costar, UK) and were bathed with continuously gassed Ringer solution (5% CO2 in O2; pH 7.4) maintained at 37° C. containing (in mM): 120 NaCl, 25 NaHCO3, 3.3 KH2PO4, 0.8 K2HPO4, 1.2 CaCl2, 1.2 MgCl2 and 10 glucose. The solution osmolarity was always between 280-300 mOsm/kg H2O for all physiological salt solutions used. Cells were voltage clamped to 0 mV (model EVC4000, WPI). Transepithelial resistance (RT) was measured by applying a 2 mV pulse at 30 s intervals and calculating RT by Ohm's law. Data were recorded using a PowerLab workstation (ADlnstruments, UK).
ENaC blocker compounds were added to the apical chamber from a 1000-fold stock solution (prepared in DMSO) to achieve a cumulative concentration response in terms of the inhibition of the basal ISC. At the completion of the concentration response, a supra-maximal concentration of amiloride (10 μM) was added. The concentration of test compound that induced a 50% inhibition of the total amiloride-sensitive ISC (IC50) was calculated using GraphPad Prism v6.05. The results are presented in Table 2, from which it can be seen that the compounds of the present invention have ENaC inhibiting activity.
For the compound `CCn1c(CNC(=O)c2nc3cc[nH]c3nc2N)[n+](CC)c2ccc(C(=O)NCCCNC(=O)OC(C)(C)C)cc21` [Example 35, 2-[({3-amino-5H-pyrrolo[2,3-b]pyrazin-2-yl}formamido)methyl]-6-[(3-{[(tert-butoxy)carbonyl]amino}propyl)carbamoyl]-1,3-diethyl-1H-1,3-benzodiazol-3-ium formic acid], the IC50 stood at 5 nM.

Regarding `CCn1c(CNC(=O)c2nc3cc[nH]c3nc2N)[n+](CC)c2ccc(OCCCNC(=O)OC(C)(C)C)cc21` [Example 23, 2-[({3-amino-5H-pyrrolo[2,3-b]pyrazin-2-yl}formamido)methyl]-6-(3-{[(tert-butoxy)carbonyl]amino}propoxy)-1,3-diethyl-1H-1,3-benzodiazol-3-ium], the IC50 was found to be 4 nM.

Regarding `CCn1c(CNC(=O)c2nc3cc[nH]c3nc2N)[n+](CC)c2ccc(C(=O)NCCCN)cc21` [Example 39, 2-[({3-amino-5H-pyrrolo[2,3-b]pyrazin-2-yl}formamido)methyl]-6-[(3-aminopropyl)carbamoyl]-1,3-diethyl-1H-1,3-benzodiazol-3-ium], the IC50 stood at 15 nM.

On to `CCn1c(CNC(=O)c2nc3c(Br)c[nH]c3nc2N)[n+](CC)c2ccc(C(=O)N3CCC(N(C[C@H](O)[C@@H](O)[C@H](O)[C@H](O)CO)C[C@H](O)[C@@H](O)[C@H](O)[C@H](O)CO)CC3)cc21` [Example 66, 2-[({3-amino-7-bromo-5H-pyrrolo[2,3-b]pyrazin-2-yl}formamido)methyl]-6-(4-{bis[(2S,3R,4R,5R)-2,3,4,5,6-pentahydroxyhexyl]amino}piperidine-1-carbonyl)-1,3-diethyl-1H-1,3-benzodiazol-3-ium], for which the IC50 was 199 nM.

Turning to `CCn1c(CNC(=O)c2nc3cc[nH]c3nc2N)[n+](CC)c2ccc(C3CCN(C(=O)OC(C)(C)C)CC3)cc21` [Example 25, 2-[({3-amino-5H-pyrrolo[2,3-b]pyrazin-2-yl}formamido)methyl]-6-{1-[(tert-butoxy)carbonyl]piperidin-4-yl}-1,3-diethyl-1H-1,3-benzodiazol-3-ium], the concentration for half-maximal inhibition (IC50) came to 2 nM.

As for `CCn1c(CNC(=O)c2nc3cc[nH]c3nc2N)[n+](Cc2ccccc2)c2ccc(OC)cc21` [Example 8, 2-[({3-amino-5H-pyrrolo[2,3-b]pyrazin-2-yl}formamido)methyl]-3-benzyl-1-ethyl-6-methoxy-1H-1,3-benzodiazol-3-ium formate], the IC50 stood at 9 nM.

`CCn1c(CNC(=O)c2nc3cc[nH]c3nc2N)[n+](CC)c2ccc(C(=O)O)cc21` [Example 34, 2-[({3-amino-5H-pyrrolo[2,3-b]pyrazin-2-yl}formamido)methyl]-6-carboxy-1,3-diethyl-1H-1,3-benzodiazol-3-ium]: the IC50 turned out to be 160 nM.

For the compound `CCn1c(CNC(=O)c2nc3cc[nH]c3nc2N)[n+](CC)c2ccc(OCCNC(=O)OC(C)(C)C)cc21` [Example 22, 2-[({3-amino-5H-pyrrolo[2,3-b]pyrazin-2-yl}formamido)methyl]-6-(2-{[(tert-butoxy)carbonyl]amino}ethoxy)-1,3-diethyl-1H-1,3-benzodiazol-3-ium], the IC50 is 8 nM.

Consider `Nc1nc2[nH]ccc2nc1C(=O)NCc1n(CC(=O)N2CCCCC2)c2ccccc2[n+]1Cc1ccccc1` [Example 18, 2-[({3-amino-5H-pyrrolo[2,3-b]pyrazin-2-yl}formamido)methyl]-3-benzyl-1-[2-oxo-2-(piperidin-1-yl)ethyl]-1H-1,3-benzodiazol-3-ium], for which the 50% inhibitory concentration (IC50) came to 5450 nM.

As for `CCn1c(CNC(=O)c2nc3c(Br)c[nH]c3nc2N)[n+](CC)c2ccc(C(=O)O)cc21` [Example 64, 2-[({3-amino-7-bromo-5H-pyrrolo[2,3-b]pyrazin-2-yl}formamido)methyl]-6-carboxy-1,3-diethyl-1H-1,3-benzodiazol-3-ium], the IC50 worked out at 244 nM.

Regarding `CCn1c(CNC(=O)c2nc3cc[nH]c3nc2N)[n+](CC)c2ccc(-c3cnn(C4CCNCC4)c3)cc21` [Example 31, 2-[({3-amino-5H-pyrrolo[2,3-b]pyrazin-2-yl}formamido)methyl]-1,3-diethyl-6-[1-(piperidin-4-yl)-1H-pyrazol-4-yl]-1H-1,3-benzodiazol-3-ium], the IC50 was 1 nM.

With `CCn1c(CNC(=O)c2nc3cc[nH]c3nc2N)[n+](C)c2ccc(OC)cc21` [Example 4, 2-[({3-amino-5H-pyrrolo[2,3-b]pyrazin-2-yl}formamido)methyl]-1-ethyl-6-methoxy-3-methyl-1H-1,3-benzodiazol-3-ium formate], the IC50 came to 8 nM.

As for `CCn1c(CNC(=O)c2nc3cc[nH]c3nc2N)[n+](CC)c2ccc(OCCNC(=N)N)cc21` [Example 32, 2-[({3-amino-5H-pyrrolo[2,3-b]pyrazin-2-yl}formamido)methyl]-6-(2-carbamimidamidoethoxy)-1,3-diethyl-1H-1,3-benzodiazol-3-ium], the IC50 was 3 nM.
